Drawing on BindingDB's records for doi:10.1016/s0960-894x(03)00792-3 (Eli Lilly, 2003), this text covers IC50 for 11 molecules.

pIC50: −log10 of the molar value.

One may read the pIC50 as the negative decadic logarithm of the IC50, by convention in mol/L. Low values mean a high IC50, high ones a low IC50.

For one assay, the target named is Cyclin-dependent kinase 4/G1/S-specific cyclin-D1 (Homo sapiens, UniProt P11802). Nature of the assay: CDK Kinase Inhibition Assay. The following applies: pH 7; 22 °C.
Chain of Cyclin-dependent kinase 4/G1/S-specific cyclin-D1 (P11802 whole entry): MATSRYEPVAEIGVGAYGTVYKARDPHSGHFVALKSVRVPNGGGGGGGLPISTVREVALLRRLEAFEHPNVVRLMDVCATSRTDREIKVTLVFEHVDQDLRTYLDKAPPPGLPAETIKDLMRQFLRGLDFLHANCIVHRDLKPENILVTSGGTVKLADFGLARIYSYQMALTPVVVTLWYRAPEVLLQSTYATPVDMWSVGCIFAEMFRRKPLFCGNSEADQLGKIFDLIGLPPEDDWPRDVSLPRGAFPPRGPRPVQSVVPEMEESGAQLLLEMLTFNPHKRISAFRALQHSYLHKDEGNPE
Chain of Cyclin-dependent kinase 4/G1/S-specific cyclin-D1 (P24385 whole entry, further chain): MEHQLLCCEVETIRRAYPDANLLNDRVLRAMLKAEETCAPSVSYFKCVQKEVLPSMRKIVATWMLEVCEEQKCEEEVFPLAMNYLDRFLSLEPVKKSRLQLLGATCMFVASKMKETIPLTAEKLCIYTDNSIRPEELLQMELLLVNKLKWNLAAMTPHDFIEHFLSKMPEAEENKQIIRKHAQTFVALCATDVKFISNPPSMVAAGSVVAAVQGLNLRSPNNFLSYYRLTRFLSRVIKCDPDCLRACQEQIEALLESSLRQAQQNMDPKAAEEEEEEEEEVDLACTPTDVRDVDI
The molecule `O=C1NC(=O)c2c1c1c3ccccc3n3c1c1c2c2ccccc2n1[C@H]1CC[C@@H]3O1` [28-oxa-4,14,19-triazaoctacyclo[12.11.2.1^{15,18}.0^{2,6}.0^{7,27}.0^{8,13}.0^{19,26}.0^{20,25}]octacosa-1(26),2(6),7(27),8(13),9,11,20(25),21,23-nonaene-3,5-dione] had a pIC50 of 6.27.
In the case of `COC(=O)[C@@]1(O)C[C@H]2O[C@]1(C)n1c3ccccc3c3c4c(c5c6ccccc6n2c5c31)C(=O)NC4`, the pIC50 is 7.52.

For another assay, the target named is cAMP-dependent protein kinase catalytic subunit alpha (Bos taurus, UniProt P00517). Kind of assay: CDK Kinase Inhibition Assay. The following applies: 25 °C.
Consider `O=C1NC(=O)c2c1c1c3ccccc3[nH]c1c1[nH]c3ccccc3c21` [6,7,12,13-Tetrahydro-5,7-dioxo-5H-indolo[2,3-a]pyrrolo[3,4-c]carbazole], for which the pIC50 is < 4.70.
The same measure, in the same setting: the result for `Cn1cc(C2=C(c3cn(CC(O)CO)c4ccccc34)C(=O)NC2=O)c2ccccc21` (stereo unspecified) [3-[1-(2,3-dihydroxypropyl)-1H-indol-3-yl]-4-(1-methyl-1H-indol-3-yl)-2,5-dihydro-1H-pyrrole-2,5-dione] reads < 4.70.
The same measure, in the same setting: with `O=C1NC(=O)c2c1c1c3ccccc3[nH]c1c1c2c2ccccc2n1CCCO` [3-(3-hydroxypropyl)-3,13,23-triazahexacyclo[14.7.0.0^{2,10}.0^{4,9}.0^{11,15}.0^{17,22}]tricosa-1(16),2(10),4(9),5,7,11(15),17(22),18,20-nonaene-12,14-dione] the figure was < 4.70; with `Cn1c2ccccc2c2c3c(c4c5ccc(F)cc5[nH]c4c21)C(=O)NC3=O` [indolocarbazole deriv. 4(h)], < 4.70; with `COc1ccc2c(c1)[nH]c1c3[nH]c4cc(OC)ccc4c3c3c(c21)C(=O)NC3=O` [6,20-dimethoxy-3,13,23-triazahexacyclo[14.7.0.0^{2,10}.0^{4,9}.0^{11,15}.0^{17,22}]tricosa-1(16),2(10),4(9),5,7,11(15),17(22),18,20-nonaene-12,14-dione], < 4.70.
In the case of `CN(C)CCCn1cc(C2=C(c3c[nH]c4ccccc34)C(=O)NC2=O)c2ccccc21` [2-[1-(3-dimethylaminopropyl)-indol-3-yl]-3-(indol-3-yl)maleimide], the pIC50 is < 4.70.
The same measure, in the same setting: with `Cn1c2ccccc2c2c3c(c4c5ccc(Br)cc5[nH]c4c21)C(=O)NC3=O` [indolocarbazole deriv. 4(f)] the figure was < 4.70.
Consider `Cn1cc(C2=C(c3cn(C)c4ccccc34)C(=O)NC2=O)c2ccccc21` [3,4-bis(1-methyl-1H-indol-3-yl)-2,5-dihydro-1H-pyrrole-2,5-dione], for which the pIC50 is < 4.70.
On the same count and under the same terms, the result for `Cn1c2ccccc2c2c3c(c4c5ccccc5[nH]c4c21)C(=O)NC3=O` [3-methyl-3,13,23-triazahexacyclo[14.7.0.0^{2,10}.0^{4,9}.0^{11,15}.0^{17,22}]tricosa-1(16),2(10),4(9),5,7,11(15),17(22),18,20-nonaene-12,14-dione] reads < 4.70.
